# The source made the active and inactive calls. The rule behind the calls is not given here.
# Target: Ubiquitin carboxyl-terminal hydrolase 10 (Homo sapiens) (UniProt Q14694)
# Test: ubiquitin-specific protease 10 DUB inhibitors, concentration-effect, biochemical, verification of primary screen actives (AID 1645863);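 note: potency values describe inhibition of USP10 cleavage of a fluorogenic ubiquitin substrate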
# Details: USP10 deubiquitinase enzymatic assay
# Ubiquitin carboxyl-terminal hydrolase 10 (Homo sapiens), sequence (Q14694 whole entry, looked up): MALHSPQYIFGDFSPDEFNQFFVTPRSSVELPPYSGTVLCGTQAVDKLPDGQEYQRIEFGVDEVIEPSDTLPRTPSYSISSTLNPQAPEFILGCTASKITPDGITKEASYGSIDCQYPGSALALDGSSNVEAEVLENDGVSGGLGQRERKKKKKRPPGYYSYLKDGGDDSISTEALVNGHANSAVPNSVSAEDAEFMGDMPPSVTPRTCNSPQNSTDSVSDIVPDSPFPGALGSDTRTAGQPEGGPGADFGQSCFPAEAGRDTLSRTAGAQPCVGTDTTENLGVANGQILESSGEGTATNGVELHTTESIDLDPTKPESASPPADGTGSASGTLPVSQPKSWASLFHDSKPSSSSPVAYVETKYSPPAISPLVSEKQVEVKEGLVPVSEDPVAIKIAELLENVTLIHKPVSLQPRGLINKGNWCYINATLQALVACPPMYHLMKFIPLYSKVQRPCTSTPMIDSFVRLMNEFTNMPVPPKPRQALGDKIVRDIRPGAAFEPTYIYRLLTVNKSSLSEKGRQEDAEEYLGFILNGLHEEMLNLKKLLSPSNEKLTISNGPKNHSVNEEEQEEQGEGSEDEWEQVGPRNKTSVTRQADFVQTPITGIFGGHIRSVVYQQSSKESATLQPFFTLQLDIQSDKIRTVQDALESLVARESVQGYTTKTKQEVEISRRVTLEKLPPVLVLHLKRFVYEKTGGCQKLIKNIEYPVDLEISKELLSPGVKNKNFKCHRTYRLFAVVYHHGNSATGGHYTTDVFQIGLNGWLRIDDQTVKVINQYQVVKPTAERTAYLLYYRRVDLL
row,Structure (SMILES),IC50
1,COc1cccc(-c2cncc(C3CCN(S(=O)(=O)N(C)C)CC3)n2)c1,> 40 µM (inactive)
2,COc1cccc(NC(=O)c2cn(-c3cc(N4CCCC4)ncn3)cn2)c1,> 40 µM (inactive)
3,COc1cc(NC(=O)Cn2c(=O)n(-c3ccc(CC(=O)NCc4ccco4)cc3)c(=O)c3ccccc32)cc(OC)c1,23.3 µM
4,O=C(Nc1cccc(-c2nc3cnccc3o2)c1)c1ccc(Br)o1,> 40 µM (inactive)
5,COc1ccc(Cl)cc1NC(=O)Cn1c(=O)n(CCC(=O)NC2CCCC2)c(=O)c2ccccc21,> 40 µM (inactive)
6,Cn1cc(-c2nc(C(=O)Nc3ccc(C#N)cc3)cs2)c2cccnc21,> 40 µM (inactive)
7,Cc1ccc(Cl)cc1NC(=O)Cn1c(=O)n(CCC(=O)NCc2ccco2)c(=O)c2ccccc21,13.1 µM
8,CC(C)=CCC/C(C)=C/COc1ccc(/C=C2\C(=O)N(O)[C@@H](C)C(=O)N2O)cc1,14.5 µM
9,Cc1cc(C)c(NC(=O)Cn2c(=O)n(CCC(=O)NCc3ccc4c(c3)OCO4)c(=O)c3sccc32)c(C)c1,21.4 µM
10,COc1cccc2cc(-c3nnc(SCC(=O)c4ccc(F)cc4)n3C)oc12,> 40 µM (inactive)
11,Cc1ccc(NC(=O)Cc2nnc3cc(-c4nc(C)no4)ccn23)cc1,14.3 µM
12,COc1ccc(NC(=O)Cn2cc(C(=O)c3ccccc3)c(=O)c3cc(Cl)ccc32)cc1OC,22.8 µM
13,Cc1ccc(NC(=O)Cn2cncc(-c3nc(-c4ccccc4)cs3)c2=O)cc1F,22.9 µM
14,O=C(Cn1c(=O)c2cccn2c2ccccc21)NCc1ccc(F)cc1,> 40 µM (inactive)
15,COC(=O)c1cc2c(ccn2-c2ccc(F)cc2)n1CC(=O)NC1CCCCC1,> 40 µM (inactive)
16,COc1cc2c(oc(=O)c3cc(C)cc(OC)c32)c2c([C@@H]3OC(C)[C@@H](O)[C@@](C)(O)C3O)ccc(O)c12 (some centres not stated),> 40 µM (inactive)
17,COc1ccc(OC)c(NC(=O)c2cc(Cl)ccc2OC)c1,> 40 µM (inactive)
18,CCCc1cc(=O)n2[nH]c(COc3ccccc3)c(-c3ccccc3)c2n1,14 µM
19,O=C(NCCc1nc2ccccc2n1CCOc1ccccc1Cl)C1CCCCC1,36.8 µM
20,COc1cc(OC)cc(N2C(=O)N(CC(=O)c3ccc(Br)cc3)c3ccccc3S2(=O)=O)c1,13.8 µM
21,COc1cc2c(=O)n(Cc3ccccc3)c(=O)n(CC(=O)N3CCCc4ccccc43)c2cc1OC,12.7 µM
22,O=C(NCC1(c2ccccc2)CCC1)c1nc2n(n1)-c1ccccc1S(=O)(=O)N2,12.8 µM
23,COc1ccc(C)cc1NC(=O)Nc1nnc(CC(=O)NCc2ccccc2)s1,> 40 µM (inactive)

row,Structure (SMILES),IC50
1,O=C(Cn1nc2c3c4c(sc3ncn2c1=O)CCCCC4)Nc1ccc(Cl)cc1F,10.9 µM
2,COc1cc(Cl)c(NC(=O)C2Cc3ccccc3N2C(=O)c2ccccc2)c(OC)c1 (configuration not stated),26.9 µM
3,CCn1cc2c(n1)c(=O)n(Cc1ccccc1)c(=O)n2CC(=O)Nc1ccc(OC)cc1,35.9 µM
4,CC(=O)c1ccc(NC(=O)CCc2c(C)c3c(C)nn(-c4ccccc4)c3n(C)c2=O)cc1,> 40 µM (inactive)
5,Cc1cc(C(=O)CSc2nc3ccccc3[nH]2)c(C)n1Cc1ccco1,> 40 µM (inactive)
6,C=C[C@]1(C)CC[C@]2(C)[C@@H](C1)[C@@H](O)C[C@H]1[C@]3(C)CCC[C@@]12OC3=O,> 40 µM (inactive)
7,O=C(Nc1cccc(-c2nc3ncccc3o2)c1)c1ccc([N+](=O)[O-])cc1,> 40 µM (inactive)
8,COC(=O)c1ccc2c(=O)n(CCCCCC(=O)NCCc3ccc(OC)c(OC)c3)c(=O)[nH]c2c1,> 40 µM (inactive)
9,CCn1c(SCC(=O)Nc2ccc(C)c(Cl)c2)nnc1-c1ccc2c(c1)OCCO2,> 40 µM (inactive)
10,Cc1ccc(NC(=O)Nc2ccc(C)n(CC(=O)Nc3ccc(C)cc3C)c2=O)cc1,21.9 µM
11,COc1ccc(-c2nc(-c3cc4cc(OC)ccc4[nH]c3=O)no2)cc1,> 40 µM (inactive)
12,Cc1cc(C(=O)Nc2cc([N+](=O)[O-])cc3oc(-c4ccccc4)cc23)on1,> 40 µM (inactive)
13,CCCc1nnc(NC(=O)c2cc(-c3ccccc3O)n[nH]2)s1,> 40 µM (inactive)
14,CNc1ncc(C(=O)N2CCOC(C(=O)N3CCCCCC3)C2)cn1 (configuration not stated),> 40 µM (inactive)
15,COc1ccc(Cl)cc1NC(=O)c1cc(-c2ccccn2)n[nH]1,9.33 µM
16,COc1cc(OC)c2c(c1)C(=O)C1=C(COC(C)(O)C1)C2=O (configuration not stated),> 40 µM (inactive)
17,Cc1ccc(-n2nc(C)c3c2NC(=O)CC3C(=O)c2cc3ccccc3o2)cc1C (configuration not stated),> 40 µM (inactive)
18,CCCCN1Cc2sc(NC(=O)Nc3ccccc3C)nc2C1=O,15.6 µM
19,NS(=O)(=O)c1ccc(CNC(=O)c2ccc(Cl)c(S(=O)(=O)Nc3cc(Cl)ccc3Cl)c2)cc1,26.4 µM
20,Cc1ccc(NC(=O)Nc2nnc(CC(=O)NCc3ccccc3)s2)c(Cl)c1,> 40 µM (inactive)
21,Cc1cccc(COc2ccc(C3SCC(=O)Nc4n[nH]c(C)c43)cc2)c1 (configuration not stated),> 40 µM (inactive)
22,COc1ccc(Nc2nc3c(S(=O)(=O)c4ccc(C)cc4)nnn3c3ccsc23)c(OC)c1,10.5 µM
23,O=C(NCc1ccco1)c1ccc(Cn2c(=O)c3sccc3n(Cc3cc(=O)n4ccccc4n3)c2=O)cc1,> 40 µM (inactive)

row,Structure (SMILES),IC50
1,O=C(Nc1cc(F)c2nc(N3CCOCC3)ccc2c1)C1CC1,> 40 µM (inactive)
2,CN(C(=O)C1(c2ccccc2)CC1)c1nc2c(s1)CCc1occc1-2,> 40 µM (inactive)
3,Cc1ccc(S(=O)(=O)Nc2cccc(Cl)c2)cc1NC(=O)CCC(=O)c1ccc(Cl)cc1,> 40 µM (inactive)
4,Cc1nnc(-c2cc(S(=O)(=O)N3CCN(c4ccc(F)cc4)CC3)c[nH]2)o1,> 40 µM (inactive)
5,Cc1cccc(NC(=O)Nc2ccccc2OCc2cc(=O)n3cccc(C)c3n2)c1,27.1 µM
6,CC(C)Cc1nc2sc3c(SCC(=O)N4CCC(C)CC4)ncnc3c2c2c1COC(C)(C)C2,> 40 µM (inactive)
7,COc1cccc(C(=O)Nc2ccc(SC(C(=O)Nc3ccccc3)c3ccccc3)cc2)c1 (configuration not stated),> 40 µM (inactive)
8,COc1ccccc1CNC(=O)Cn1cnc2c(-c3ccccc3)csc2c1=O,> 40 µM (inactive)
9,O=C(CC1C(=O)Nc2nc(-c3ccccc3)nn21)Nc1cccc2ccccc12 (configuration not stated),13.3 µM
10,Cc1ccc(NC(=O)Cc2nnc3c(-c4nc(C5CC5)no4)cccn23)cc1F,31.5 µM
11,CCCn1c(=O)c(-c2ccc(C(=O)NCc3ccc(OC)cc3)cc2)nc2cccnc21,> 40 µM (inactive)
12,CC(=O)c1ccc(N2CCN(S(=O)(=O)c3cc4c(cc3C)NC(=O)CO4)CC2)cc1,> 40 µM (inactive)
13,COc1cc(NC(=O)Cn2c(=O)n(-c3ccc(CC(=O)NC4CCCC4)cc3)c(=O)c3ccccc32)cc(OC)c1,> 40 µM (inactive)
14,COc1cccc(CNc2ccc(-c3nc(-c4ccccc4)no3)nn2)c1,> 40 µM (inactive)
15,C[C@H](Cc1cc2c(cc1O)OCO2)[C@@H](C)Cc1cc2c(cc1O)OCO2,19.6 µM
16,Cc1ccc(C)c(NC(=O)Cn2cc(C(=O)C3CC3)c3ccccc32)c1,15.4 µM
17,O=C(Cn1c(-c2nc(-c3cccc(F)c3)no2)cccc1=O)NCc1ccco1,> 40 µM (inactive)
18,Cc1ccc(N2CC(C(=O)Nc3cccc(-c4noc(C)n4)c3)CC2=O)cc1 (configuration not stated),> 40 µM (inactive)
19,COc1cc(Cl)c(NC(=O)c2cc(-c3ccccn3)n[nH]2)c(OC)c1,> 40 µM (inactive)
20,COC(=O)c1ccc(C(=O)Nc2cc3ccccc3cc2NC(=O)c2ccc(C(=O)OC)cc2)cc1,> 40 µM (inactive)
21,CCC/C=C\C#CC/C=C\CCCCCCCC(=O)O,3.3 µM
22,CCOC(=O)C1CCN(Cc2cc(=O)oc3cc(O)c(O)cc23)CC1,1.68 µM
23,O=C(Cn1ccc2ccn(Cc3ccccc3)c2c1=O)Nc1ccccc1Cl,> 40 µM (inactive)

row,Structure (SMILES),IC50
1,COc1cccc(NC(=O)Cn2c3ccccc3n3c(=O)cc(-c4ccccc4)nc23)c1,14.6 µM
2,Cc1ccccc1Cn1c(=O)n(CC2CCC(C(=O)NC3CCCC3)CC2)c(=O)c2ccccc21 (configuration not stated),> 40 µM (inactive)
3,O=C(CSc1nc2cc(C(F)(F)F)ccc2s1)NCC(=O)c1ccccc1,18.1 µM
4,COc1cccc(C2c3[nH]c4ccccc4c3C[C@@H]3C(=O)N(CC(O)c4ccccc4)CC(=O)N23)c1 (some centres not stated),> 40 µM (inactive)
5,CSc1cccc(NC(=O)c2cc(-c3cccnc3)n[nH]2)c1,> 40 µM (inactive)
6,O=C(Cn1cnc(-c2noc(-c3ccc(F)cc3)n2)c1)Nc1ccccc1F,> 40 µM (inactive)
7,O=C(O)C1C(C(=O)Nc2ccccc2)C2(c3ccccc3)C(=O)C1(c1ccccc1)C(c1ccccc1)=C2c1ccccc1 (configuration not stated),4.25 µM
8,CC(=O)N1CCc2cc(S(=O)(=O)NC(Cc3ccccc3)C(=O)Nc3cccc(Cl)c3C)ccc21 (configuration not stated),23.8 µM
9,COc1ccc(-c2nc(-c3nnn(Cc4ccc(F)cc4)c3C)no2)c(OC)c1,> 40 µM (inactive)
10,Cc1cc(C)c(NC(=O)Cc2sc(Nc3ccc(C)c(C)c3)nc2O)c(C)c1,> 40 µM (inactive)
11,O=C(CSc1ccc2nnc(-c3ccc(Cl)cc3)n2n1)N1CCCCC1,> 40 µM (inactive)
12,Cc1ccc(NC(=O)Nc2nnc(CC(=O)NCc3ccccc3)s2)cc1F,> 40 µM (inactive)
13,CCOc1ccc(Oc2nc(CN3CCCC3)nc3sc(C)c(C)c23)cc1,> 40 µM (inactive)
14,O=C(CCn1c(=O)c2sccc2n(Cc2ccc([N+](=O)[O-])cc2)c1=O)NCc1ccccc1,> 40 µM (inactive)
15,O=C1CC(O)C(O)c2cccc(O)c21 (configuration not stated),> 40 µM (inactive)
16,COc1ccc(/C=C/C(=O)Nc2nc3n(n2)C(c2ccccc2)CC(=O)N3)cc1 (configuration not stated),> 40 µM (inactive)
17,Oc1cccc2nc3c(O)cccc3nc12,11.3 µM
18,CCc1ccc(NC(=O)Cc2nnc3cc(-c4nc(C)no4)ccn23)cc1,12.7 µM
19,O=C(NCc1ccc2c(c1)OCO2)c1cn(-c2cccc(Cl)c2)nn1,33 µM
20,CC1(C(=O)NCc2ccc(F)cc2)Cn2nc(-c3ccco3)cc2C(=O)N1c1ccc2c(c1)OCCO2 (configuration not stated),> 40 µM (inactive)
21,O=C(c1ccc2c(c1)OCO2)[C@@H]1[C@H](C(=O)OC(c2ccccc2)c2ccccc2)N2c3ccccc3C=CC2[C@@]12C(=O)Nc1ccccc12 (some centres not stated),> 40 µM (inactive)
22,Cc1ccc([N+](=O)[O-])cc1S(=O)(=O)Nc1cc2sc(=O)oc2c2ccccc12,> 40 µM (inactive)
23,Cc1cc(C(F)(F)F)n2nc(C3CCN(C(=O)c4cnn(C)c4C)C3)cc2n1 (configuration not stated),> 40 µM (inactive)
